Data published in patent US8188086B2, “Specific salt, anhydrous and crystalline form of a dihydropteridione derivative” (Boehringer Ingelheim International GmbH, priority 2006, dated 2012).

Columns and labels:
Assay type in all cases: physicochemical
[1] = Solubility in aqueous media
[2] = Solid state stability under harsh stress conditions
Description: No significant decomposition or impurities (Σ<2.4%) can be observed under the applied stress conditions.

[3] = physchem
Protocol: This hydrated form of the trihydrochloride salt of the compound N-[trans-4-[4-(cyclopropylmethyl)-1-piperazinyl]cyclohexyl]-4-[[(7R)-7-ethyl-5,6,7,8-tetrahydro-5-methyl-8-(1-methylethyl)-6-oxo-2-pteridinyl]amino]-3-methoxy-benzamide of formula (I) is highly soluble (>10 mg/ml) in propylenglycol, glycofurol, Cremophor RH40 (30% aqueous solution), Poloxamer 188 (20% aqueous solution), Solutol HS 15 (20% aqueous solution) as well as HP-β-cyclodextrin (20%-, 10%-, 5%-aqueous solutions). • Solid state properties of an hydrated form of the trihydrochloride salt of N-[trans-4-[4-(cyclopropylmethyl)-1-piperazinyl]cyclohexyl]-4-[[(7R)-7-ethyl-5,6,7,8-tetrahydro-5-methyl-8-(1-methylethyl)-6-oxo-2-pteridinyl]amino]-3-methoxy-benzamide. • Appearance

[4] = Stability of hydrate / anhydrous form (humidity, ambient conditions, heating)
Description: Under standard conditions the crystalline trihydrochloride salt form of N-[trans-4-[4-(cyclopropylmethyl)-1-piperazinyl]cyclohexyl]-4-[[(7R)-7-ethyl-5,6,7,8-tetrahydro-5-methyl-8-(1-methylethyl)-6-oxo-2-pteridinyl]amino]-3-methoxy-benzamide according to the invention is present in the form of an hydrate and is obtainable after drying with a changing stoichiometry (1-3 water equivalents). The hydrate with a stoichiometry close to a trihydrate seems to be the stable hydrated form under ambient conditions and can be obtained after conditioning of the dried material. The crystal water is tightly bound.
At about 260° C. another strong endothermic peak can be observed in the DSC-diagram, indicating melting of the dehydrated form. The onset of this melting event is at about 245° C. Melting occurs, however, under decomposition, indicated by the accompanied weight loss upon melting. When performing a TG-IR coupling experiment, it can be shown that hydrochloric acid is released upon decomposition. The respective anhydrous form, obtained by heating a sample up to 140° C. is not stable.

CC[C@@H]1C(=O)N(C)c2cnc(Nc3ccc(C(=O)N[C@H]4CC[C@H](N5CCN(CC6CC6)CC5)CC4)cc3OC)nc2N1C(C)C.Cl [N-[trans-4-[4-(cyclopropylmethyl)-1-piperazinyl]cyclohexyl]-4-[[(7R)-7-ethyl-5,6,7,8-tetrahydro-5-methyl-8-(1-methylethyl)-6-oxo-2-pteridinyl]amino]-3-methoxy-benzamide]
solubility in physiologically acceptable solvents [1]: readily soluble in physiologically acceptable solvents | pH dependent solubility profile in aqueous media ([1]; conclusion from Table I): high solubility in acidic and neutral media and strongly reduced solubility in basic media | solubility ([1]; pH 2.2, aqueous buffer): > 10000 µg/mL | solubility ([1]; pH 3, aqueous buffer): 6200 µg/mL | solubility ([1]; pH 4, aqueous buffer): 7200 µg/mL | solubility ([1]; pH 5, aqueous buffer): 7200 µg/mL | solubility ([1]; pH 6, aqueous buffer): 7100 µg/mL | solubility ([1]; pH 7.4, aqueous buffer): 7800 µg/mL | solubility ([1]; simulated gastric fluid): > 10000 µg/mL | solubility ([1]; water): > 10000 µg/mL | decomposition or impurities (Σ) ([2]; 24 hours at 105° C., 72 hours at 70° C. and >90% rel. humid., or 24 hours in a Xenotester (λ=300-800 nm, 250 W·m^−2)): < 2.4% | stability in the solid state ([2]; harsh stress conditions (105° C. 24 h; 70° C./>90% rel. humid. 72 h; Xenotester 24 h)): very stable in the solid state | solubility [3]: > 10000 µg/mL | solubility ([3]; aqueous with cosolvent or surfactant or cyclodextrin): > 10000 µg/mL | solubility ([3]; organic solvent or mixture): > 10000 µg/mL | stability under ambient conditions compared to the anhydrous form ([4]; ambient conditions): advantage of stability under ambient conditions | weight loss on lowering the humidity ([4]; humidity down to 10% r.h.): does not result in a significant weight loss

CC[C@@H]1C(=O)N(C)c2cnc(Nc3ccc(C(=O)N[C@H]4CC[C@H](N5CCN(CC6CC6)CC5)CC4)cc3OC)nc2N1C(C)C.Cl [anhydrous form, N-[trans-4-[4-(cyclopropylmethyl)-1-piperazinyl]cyclohexyl]-4-[[(7R)-7-ethyl-5,6,7,8-tetrahydro-5-methyl-8-(1-methylethyl)-6-oxo-2-pteridinyl]amino]-3-methoxy-benzamide]
stability of the anhydrous form ([4]; obtained by heating a sample up to 140° C.): not stable

CC[C@@H]1C(=O)N(C)c2cnc(Nc3ccc(C(=O)N[C@H]4CC[C@H](N5CCN(CC6CC6)CC5)CC4)cc3OC)nc2N1C(C)C.Cl [trihydrochloride salt, N-[trans-4-[4-(cyclopropylmethyl)-1-piperazinyl]cyclohexyl]-4-[[(7R)-7-ethyl-5,6,7,8-tetrahydro-5-methyl-8-(1-methylethyl)-6-oxo-2-pteridinyl]amino]-3-methoxy-benzamide]
solubility in water compared to the free base [1]: much more soluble than the free base
